Results: patent US20080090916A1, “Compounds for Treating Urinary Incontinence” (priority 2005, published 2008)

How the values were obtained:
Female land race pigs = assay: In vivo pig urodynamic model (urodynamic and cardiovascular parameters)
Experimental: The animal model employed in this study was a slight modification of the previously described pig in vivo urodynamic model by Mills (1999). Surgical procedures were performed by Home Office personal licence holders. Female land race pigs of about 60 kg in weight were used for this study.
Pigs were initially sedated with ketamine hydrochloride 15 mg/kg (ketaset, Willows Francis Veterinary, Crawley, UK) and midazolam 0.2 mg/kg (Hypnovel, Roche Products Ltd, Welwyn Garden City, UK) through an intravenous central line. […] The induction phase of general anaesthesia was accomplished with 5% halothane (Fluothane, Astra ZenecaLtd, Macclesfield UK) in nitrous oxide 50%/oxygen 50%, delivered from an anaesthetic machine through a conical mask which was held over the snout of the pig. Following the induction phase, the maintenance phase of general anaesthesia was achieved using intravenous 1% propofol at the rate of 200 mg/hr.
At the start of surgery, the pig was initially placed in the left lateral position allowing access to the lumbar dorsal region. A stab incision for each catheter was made in the lumbar dorsal midline, as well as a single small right iliac fossa incision. Using a specially designed trocar, the peritoneal catheter and the proximal portions of the vesical catheters were tunneled from the dorsal lumbar incision to the right iliac fossa, such that the cuff at the proximal end finished in a small subcutaneous pocket. Each incision was approximated with two interrupted 2/0 nylon sutures, taking care to avoid occlusion of the catheters. The pig was then turned into a supine position and a lower abdominal incision made. Using a Spencer-Well forceps, the peritoneum and abdominal wall muscles were pierced from inside out and three catheters grabbed and pulled into the peritoneal cavity. The longer peritoneal catheter was placed in the vesico-vaginal pouch. Two purse-string sutures of 2/0 silk were placed in the apex of the bladder, and stab incisions made through the centre of each of these. The distal shorter halves of the vesical lines were introduced into the bladder through these incisions and the purse-strings tied, ensuring that the lumen of each catheter remained patent. Each side of the small pieces of silastic sheet on these catheters was sutured to the serosa of the bladder, in order to provide further security against subsequent line displacement. These distal portions of the two vesical catheters were then connected to the proximal portions using the nylon connectors. The abdominal wound was closed en masse with 1 nylon, followed by 2/0 chromic catgut to fat and interrupted 2/0 nylon to the skin. The right iliac fossa wound was closed in layers with vicryl to internal oblique and external oblique and interrupted 2/0 nylon to the skin. One of the vesical lines was attached to another piece of tubing externally and left on free drainage for 48 hours to allow the bladder to heal.
Following induction of anaesthesia, the animal was placed in a supine position and covered with a warm water blanket to maintain body temperature. A small incision was then made in the left groin area through which the left femoral artery was identified by palpation. The artery was then cannulated with an arterial […] cannulae (Abbocath-T, Abbott Ireland, and Sligo, Ireland) which was then connected to a pressure transducer for the measurement of arterial pressure. Vesico-urethral junction cystometry was obtained using a catheter mounted with a microtranducer (Gaeltec LTD, Isle of Skye). To cannulate the urethra, the vagina was opened with a speculum to expose the external urethral orifice which is high up in the anterior wall of the vagina. Having identified the external orifice the catheter was then inserted into the urethra by direct vision, thereafter it was gradually withdrawn until it was positioned in the vesico-urethral junction. […]

[1] = Solubility concentration of saturated solutions determined by HPLC; format: physicochemical
Experimental: The tightness of the cells and absence of air bubbles in the receptor phase was monitored and given at each sampling point.
So, from manufacturing of the solutions, the amount of the compound of formula (Ia) per solvent volume was known (documentation by balance print out). That amount was named a saturated solution. Afterwards the saturated solution was centrifuged and the solubility concentration of the clear supernatant of the solution was determined quantitatively by HPLC. The saturation factor was calculated from the ratio of saturated solution:solubility concentration. A high ratio represented a high level of infinite dose.

[2] = test system: vesicourethral junction sphincter muscle strips; assay: Enzyme assay: regeneration of 1R,2S-methoxamine from compound (Ia) by gamma glutamyl transferase, reaction product tested on muscle strips; format: cell-based, pig; settings: for response of muscle strips: 0.3 mM
Experimental: Regeneration of 1R,2S-methoxamine from the Compound of Formula (Ia)
Into a clean glass vial (1 ml volume) the following reaction mixtures were pipetted as follows:
200 μl compound of formula (Ia), 10 mg/ml in Tris buffer (mol. wt. 376, therefore=2 mg compound of formula (Ia)=5.3 μMoles), 100 μl solution E
Reaction product of groups 1, 2 and 3 were only tested for biological activity after 30 minutes of incubation period at 37° C. while that of group 4 were also tested after, 10, 30 and 60 minutes of incubation period. A 5 h group of which reaction mixture indicated in group four were diluted by two fold after 30 min incubation were also tested for biological activity.
Gamma glutamyl transferase, 2-1-18 porcine kidney was purchased from Calzyme Labs San Luis Obispo, Calif. 93401 USA, glyclglycine was obtained from Acros Organics, New Jersey, USA while L-glutamic acid 5-(4-nitroanilide) was purchased from Fluka Chemie Switzerland.
The reaction mixture was incubated in HOT BOX oven, size one incubator made by Gallenpark, England, while the absorbance was measured (@λmax 405 nm), using Anthos 2020 UV/VIS spectrophotometer.
Representative traces of pig vesicourethral junction sphincter muscle response to various enzyme reaction products are shown in FIG. 3 and representative traces of pig proximal sphincter muscle response to various enzyme reaction products are shown in FIG. 4. The enzyme reaction products tested are as follows: • FIG. 3a-50 mM Tris HCl buffer; • FIG. 3b-50 mM Tris HCl buffer, gamma glutamyl transferase. • FIG. 3c-50 mM Tris HCl buffer, MgCl2.6H2O, glycylglycine, compound of formula (Ia); • FIG. 4a-50 mM Tris HCl buffer, MgCl2.6H2O, glycylglycine, gamma glutamyl transferase, compound of formula (Ia); • FIG. 4b-0.3 mM 1R,2S-methoxamine.

[3] = 1 mg/kg iv bolus, mean of three voiding cycles

Question: For `COc1ccc(OC)c([C@@H](O)[C@H](C)NC(=O)CC[C@H](N)C(=O)O)c1` [compound of formula (Ia), (S)-2-Amino-4-[(1S,2R)-2-(2,5-dimethoxyphenyl)-2-hydroxy-1-methyl-ethylcarbamoyl]butyric acid], which “VUJ threshold pressure, greater than control runs” value (Female land race pigs; 1 mg/kg iv) is on record?
Answer: about 31%

Question: What about the “duration of voiding, change from control” value (Female land race pigs; 1 mg/kg iv) of the same compound?
Answer: 4.1%

Question: What about the “fall in deutrusor voiding pressure from the control runs” value (Female land race pigs; 1 mg/kg iv) of the same compound?
Answer: 36.5%

Question: And the “flow rate, change from control” value (Female land race pigs; 1 mg/kg iv)?
Answer: 2.4%

Question: What about the “voiding intervals, change from control” value (Female land race pigs; 1 mg/kg iv) of the same compound?
Answer: −4.7%

Question: And the deutrusor voiding pressure (Female land race pigs; [3])?
Answer: 28±10.11 cmH2O

Question: And the “intravesical threshold voiding pressure” value (Female land race pigs; [3])?
Answer: 16.23±1.16 cmH2O

Question: And the “voiding pressure during the voiding phase” value (Female land race pigs; [3])?
Answer: 41.1±8.3 cmH2O

Question: And the “bladder intravesical baseline pressure” value (Female land race pigs; 1 mg/kg iv bolus, mean of three voiding cycles, one animal)?
Answer: 8.53±0.34 cmH2O

Question: What about the “reduction in residual volume” value (Female land race pigs; 1 mg/kg iv, versus control) of the same compound?
Answer: 31%

Question: And the “rise in the threshold VUJ voiding pressure” value (Female land race pigs; 1 mg/kg iv, versus control)?
Answer: 15%

Question: And the VUJ baseline pressure (Female land race pigs; 1 mg/kg iv, versus control runs)?
Answer: transient rise

Question: And the “arterial pressure, change from the control” value (Female land race pigs; 1 mg/kg iv, arterial line flushed after dosing)?
Answer: 15%

Question: What about the voiding efficiency (Female land race pigs; 1 mg/kg iv, voided volume as percentage of bladder capacity) of the same compound?
Answer: 95%

Question: And the “saturation concentration in the acceptor medium” value ([1]; 0.9% NaCl 80%, PEG 400 20%, 0.1% NaN3)?
Answer: 130 mg/mL

Question: What about the “solubility in Ethanol” value ([1]; Ethanol) of the same compound?
Answer: high solubility

Question: And the water solubility ([1]; water)?
Answer: high

Question: And the “solubility in both media” value ([1]; water and DMSO)?
Answer: high solubility

Question: And the “response of muscle strips” value ([2]; prepared in saline)?
Answer: 1.15 g

Question: And the “response of muscle strips” value ([2]; prepared in tris buffer)?
Answer: 1.22 g

Question: And the “reduction of bladder activity of the reaction mixture” value ([2]; 2-fold dilution post 30 min incubation with the enzyme)?
Answer: 38%

Question: And the contractile response ([2]; Mg^2+-glycylglycine-compound-enzyme mixture, 30 min incubation)?
Answer: 1.62 g

Question: What about the “contractile response of pig bladder neck muscle” value ([2]; administered with gamma glutamyl transferase and glycylglycine, FIG. 4a) of the same compound?
Answer: pronounced well defined contractile response

Question: What about the contractile response ([2]; buffer-Mg^2+-glycylglycine-compound, no enzyme, 30 min incubation) of the same compound?
Answer: 0.12 g

Question: And the contractile response ([2]; reaction mixture with enzyme, 10 min incubation)?
Answer: 1.52 g

Question: What about the contractile response ([2]; reaction mixture with enzyme, 60 min incubation) of the same compound?
Answer: 1.10 g
